How the values were obtained:
[1] = biological target: T1, FASN Keto-reductase Domain (Homo sapiens, UniProt P49327); assay: Fatty Acid Synthase Keto-Reductase Domain (FASN KR) Inhibition; assay type: biochemical; details: mean where tested more than once; read-out: FASN K-R Domain pIC50 (converted)
T1 construct: 10 μL hFASN enzyme (full length, 300 ng, purified in house) and 360 μM NADPH; made in house
Summary of the method: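 Keto-reductase activity followed as NADPH consumption (A340 drop between 0 and 20 min, room temperature) using in-house full-length hFASN, 360 μM NADPH and ethyl acetoacetate substrate (180 mM stock), pH 7.5 phosphate buffer.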

A2780 ovarian cells [2] = assay: A2780 Ovarian Cell Proliferation Assay in Lipid Reduced Medium, with Palmitate (control); assay type: cell-based; details: Homo sapiens
Summary of the method: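 Read-out was MTT absorbance at 544 nm after 96 h at 37 °C. Cells grown overnight in RPMI1640/10% FCS were moved to 10% lipid-reduced serum with compound plus palmitate (final 25 μM, 0.2% fatty-acid-free BSA, 0.2% DMSO). IC50 came from least-squares curve fitting, expressed as −log(IC50).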

A2780 ovarian cells [3] = assay: A2780 Ovarian Cell Proliferation Assay in Lipid Reduced Medium, without Palmitate; assay type: cell-based; details: Homo sapiens
Summary of the method: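 A2780 cells were seeded in 10% FCS medium and switched next day to 10% lipid-reduced serum without palmitate. Compounds at 0.01–30 μM were added with 0.2% DMSO, 0.2% fatty-acid-free BSA and 0.25% ethanol final. After 96 h, MTT absorbance at 544 nm was normalized to plate controls, and IC50/pIC50 came from a 4-parameter logistic fit.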

[4] = Cytotoxicity in HepG2 cells (Resazurin assay); assay type: cell-based; details: human, read-out: CC50 (Toxicity HepG2-4d)
Protocol: (§1) The anti-HBV activity was measured using the HepG2.117 cell line, a stable, inducibly HBV producing cell line (SUN D., et al., “Stable HepG2- and Huh7-based human hepatoma cell lines for efficient regulated expression of infectious hepatitis B virus”, J. of Hepatology, 2006, pp 636-645, Vol. 45) which replicates HBV in the absence of doxycycline (Tet-off system). For the antiviral assay, HBV replication was induced, followed by a treatment with serially diluted compound in 96-well plates in duplicate. After 3 days of treatment, the antiviral activity was determined by quantification of intracellular or extracellular HBV DNA using realtime PCR and an HBV specific primer set and probe. Cytotoxicity of the test compounds was tested using HepG2 cells, incubated for 4 days in the presence of test compounds. The viability of the cells was assessed using a Resazurin assay. The CC50 was defined as the 50% concentration for cytotoxicity

HBV = assay: Antiviral Activity Against HBV Replication (HBV DNA, HepG2.117 cell line); assay type: cell-based; details: Hepatitis B virus, 72 h; HepG2.117 cells, 3 days, HBV DNA by realtime PCR
Protocol: as §1

[5] = Toxicity Huh7-ATP (cytotoxicity alongside the HCV replicon assay); details: human, Huh7 cells
[6] = A2780, lipid reduced medium, 25 μM palmitate, 96 h, MTT, read-out: Proliferation A2780 with Palmitate pIC50 (converted)
[7] = A2780, lipid reduced medium, without palmitate, 96 h, MTT, read-out: Proliferation A2780 w/o Palmitate pIC50 (converted)

T1 sequence (P49327 whole entry, the tested form may be a part): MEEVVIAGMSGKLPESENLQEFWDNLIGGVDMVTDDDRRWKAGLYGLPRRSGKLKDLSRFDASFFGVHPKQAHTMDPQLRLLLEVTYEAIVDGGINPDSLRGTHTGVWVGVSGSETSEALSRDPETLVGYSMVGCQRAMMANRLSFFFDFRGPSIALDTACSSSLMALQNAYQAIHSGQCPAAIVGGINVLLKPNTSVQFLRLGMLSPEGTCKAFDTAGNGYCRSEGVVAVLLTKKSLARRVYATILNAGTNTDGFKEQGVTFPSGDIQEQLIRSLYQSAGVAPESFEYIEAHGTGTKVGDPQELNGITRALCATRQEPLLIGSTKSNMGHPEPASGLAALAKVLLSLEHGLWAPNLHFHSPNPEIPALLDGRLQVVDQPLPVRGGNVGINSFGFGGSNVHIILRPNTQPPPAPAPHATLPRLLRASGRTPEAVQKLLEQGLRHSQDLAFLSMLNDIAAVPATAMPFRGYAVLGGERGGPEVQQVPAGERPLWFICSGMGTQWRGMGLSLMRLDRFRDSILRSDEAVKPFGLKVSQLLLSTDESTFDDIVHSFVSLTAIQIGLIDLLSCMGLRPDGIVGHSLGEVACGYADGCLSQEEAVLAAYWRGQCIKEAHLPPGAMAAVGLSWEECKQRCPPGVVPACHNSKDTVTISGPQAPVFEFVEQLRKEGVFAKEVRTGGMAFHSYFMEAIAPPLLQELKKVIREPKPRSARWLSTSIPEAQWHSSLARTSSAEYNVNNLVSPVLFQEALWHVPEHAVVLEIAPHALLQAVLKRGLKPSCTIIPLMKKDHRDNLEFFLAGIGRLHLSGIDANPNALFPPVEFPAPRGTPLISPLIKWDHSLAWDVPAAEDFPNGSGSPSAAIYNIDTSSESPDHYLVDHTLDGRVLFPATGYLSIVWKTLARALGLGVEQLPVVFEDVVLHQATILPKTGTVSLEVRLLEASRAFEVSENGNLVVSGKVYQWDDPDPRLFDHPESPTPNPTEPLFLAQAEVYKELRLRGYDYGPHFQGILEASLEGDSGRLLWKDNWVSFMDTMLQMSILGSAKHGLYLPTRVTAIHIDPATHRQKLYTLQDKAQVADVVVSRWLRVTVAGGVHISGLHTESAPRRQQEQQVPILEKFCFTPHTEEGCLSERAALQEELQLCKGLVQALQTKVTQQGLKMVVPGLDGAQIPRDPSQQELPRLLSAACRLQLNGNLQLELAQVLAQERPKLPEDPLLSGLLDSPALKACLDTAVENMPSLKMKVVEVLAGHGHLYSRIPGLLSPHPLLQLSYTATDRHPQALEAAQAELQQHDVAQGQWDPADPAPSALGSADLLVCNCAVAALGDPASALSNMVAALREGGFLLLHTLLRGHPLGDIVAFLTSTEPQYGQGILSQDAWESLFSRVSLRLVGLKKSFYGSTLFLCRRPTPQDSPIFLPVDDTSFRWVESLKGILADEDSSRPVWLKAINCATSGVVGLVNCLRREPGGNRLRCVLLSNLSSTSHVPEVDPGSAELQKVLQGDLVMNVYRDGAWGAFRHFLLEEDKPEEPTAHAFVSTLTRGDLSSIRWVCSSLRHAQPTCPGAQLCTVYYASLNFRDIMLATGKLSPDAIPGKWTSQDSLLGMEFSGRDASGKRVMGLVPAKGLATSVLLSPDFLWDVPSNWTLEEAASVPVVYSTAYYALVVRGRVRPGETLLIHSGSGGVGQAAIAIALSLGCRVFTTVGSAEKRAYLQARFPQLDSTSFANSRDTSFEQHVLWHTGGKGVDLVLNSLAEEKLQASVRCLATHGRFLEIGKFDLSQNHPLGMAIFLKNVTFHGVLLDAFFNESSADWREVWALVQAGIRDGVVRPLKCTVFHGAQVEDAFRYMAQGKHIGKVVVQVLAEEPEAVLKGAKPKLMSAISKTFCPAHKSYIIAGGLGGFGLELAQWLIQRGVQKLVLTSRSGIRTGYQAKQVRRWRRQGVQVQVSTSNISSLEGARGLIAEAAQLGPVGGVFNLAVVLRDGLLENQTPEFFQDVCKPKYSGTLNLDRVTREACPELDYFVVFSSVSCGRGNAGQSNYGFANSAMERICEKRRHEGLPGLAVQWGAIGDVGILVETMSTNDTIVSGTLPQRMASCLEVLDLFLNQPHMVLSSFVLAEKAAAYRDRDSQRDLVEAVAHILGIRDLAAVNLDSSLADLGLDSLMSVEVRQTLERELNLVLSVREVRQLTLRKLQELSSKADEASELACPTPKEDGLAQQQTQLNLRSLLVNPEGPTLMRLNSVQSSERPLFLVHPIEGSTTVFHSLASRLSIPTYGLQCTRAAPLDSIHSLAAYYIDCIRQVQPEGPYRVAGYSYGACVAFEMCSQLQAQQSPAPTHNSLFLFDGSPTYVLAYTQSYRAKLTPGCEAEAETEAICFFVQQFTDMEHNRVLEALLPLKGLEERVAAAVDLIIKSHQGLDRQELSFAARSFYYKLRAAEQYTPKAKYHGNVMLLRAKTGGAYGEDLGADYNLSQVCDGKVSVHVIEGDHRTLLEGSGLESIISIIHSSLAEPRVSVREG

SMILES | IC50 [1] [nM] | IC50 (A2780 ovarian cells [2]; [6]) [µM] | IC50 (A2780 ovarian cells [3]; [7]) [µM] | CC50 at 4 days [4] [nM] | EC50 (HBV) [nM] | CC50 [5] [nM] | IC50 (A2780 ovarian cells [2]; A2780, 96 h, read-out: Proliferation A2780 with Palmitate pIC50 (μM) (converted)) [µM] | IC50 (A2780 ovarian cells [3]; A2780, 96 h, read-out: Proliferation A2780 w/o Palmitate pIC50 (μM) (converted)) [µM]
COCCN(C)c1ccc(C(=O)N2CCC(c3ccc(-c4cnn(C)c4)cc3)CC2)cc1NC(=O)C1CC1 [Compound 278, N-(2-((2-methoxyethyl)(methyl)amino)-5-(4-(4-(1-methyl-1H-pyrazol-4-yl)phenyl)piperidine-1-carbonyl)phenyl)cyclopropanecarboxamide] | 1100 | > 10 | 1.78 | – | – | – | – | –
COCCNc1ccc(C(=O)N2CCC(c3ccc(-c4cnn(C)c4)cc3)CC2)cc1NC(=O)c1ccc(NC(C)C)nc1 [Compound 282, 6-(isopropylamino)-N-(2-((2-methoxyethyl)amino)-5-(4-(4-(1-methyl-1H-Pyrazol-4-yl)phenyl)piperidine-1-carbonyl)phenyl)nicotinamide] | 457 | > 10 | 0.209 | – | – | – | – | –
CC(C)Nc1ccc(C(=O)Nc2cc(C(=O)N3CCC(c4ccc(-c5cnn(C)c5)cc4)CC3)ccc2NC2CC2)cn1 [Compound 283, N-(2-(cyclopropylamino)-5-(4-(4-(1-methyl-1H-pyrazol-4-yl)phenyl)piperidine-1-carbonyl)phenyl)-6-(isopropylamino)nicotinamide] | 631 | > 10 | 0.363 | – | – | – | – | –
COCCNc1ccc(C(=O)N2CCC(c3ccc(-c4cnn(C)c4)cc3)CC2)cc1NC(=O)C1CC1 [Compound 286, N-(2-((2-methoxyethyl)amino)-5-(4-(4-(1-methyl-1H-pyrazol-4-yl)phenyl)piperidine-1-carbonyl)phenyl)cyclopropanecarboxamide] | 851 | > 10 | 0.427 | – | – | – | – | –
CC(C)Nc1ccc(C(=O)Nc2cc(C(=O)N3CCC(c4ccc(-c5cnn(C)c5)cc4)CC3)ccc2N(C)C2CC2)cn1 [Compound 287, N-(2-(cyclopropyl(methyl)amino)-5-(4-(4-(1-methyl-1H-pyrazol-4-yl)phenyl)piperidine-1-carbonyl)phenyl)-6-(isopropylamino)nicotinamide] | 204 | > 10 | 0.676 | – | – | – | – | –
CN(c1ccc(C(=O)N2CCC(c3ccc(-c4cnn(C)c4)cc3)CC2)cc1NC(=O)C1CC1)C1CC1 [Compound 288, N-(2-(cyclopropyl(methyl)amino)-5-(4-(4-(1-methyl-1H-pyrazol-4-yl)phenyl)piperidine-1-carbonyl)phenyl)cyclopropanecarboxamide] | 2510 | > 10 | 5.13 | – | – | – | – | –
Cc1ccc(C(=O)N2CCC(c3ccc(-c4cnn(C)c4)cc3)CC2)cc1NC(=O)c1ccc(NC(C)C)nc1 [Compound #32, 6-(isopropylamino)-N-(2-methyl-5-(4-(4-(1-methyl-1H-pyrazol-4-yl)phenyl)piperidine-1-carbonyl)phenyl)nicotinamide] | 37.2 | – | – | > 25000 | > 5000 | > 25000 | 7.24 | 0.0135

Now from value to compound, other results behind:

IC50 [1] [nM] | IC50 (A2780 ovarian cells [2]; [6]) [µM] | IC50 (A2780 ovarian cells [3]; [7]) [µM] | SMILES | CC50 at 4 days [4] [nM] | EC50 (HBV) [nM] | CC50 [5] [nM] | IC50 (A2780 ovarian cells [2]; A2780, 96 h, read-out: Proliferation A2780 with Palmitate pIC50 (μM) (converted)) [µM] | IC50 (A2780 ovarian cells [3]; A2780, 96 h, read-out: Proliferation A2780 w/o Palmitate pIC50 (μM) (converted)) [µM]
~2190 | > 10 | ~0.302 | CC(C)N(C)c1ccc(C(=O)N2CCC(c3ccc(-c4cnn(C)c4)cc3)CC2)cc1NC(=O)c1ccc(Cl)nc1 [Compound 274, 6-chloro-N-(2-(isopropyl(methyl)amino)-5-(4-(4-(1-methyl-1H-pyrazol-4-yl)phenyl)piperidine-1-carbonyl)phenyl)nicotinamide] | – | – | – | – | –
126 | > 10 | 0.1 | CN(C)c1ccc(C(=O)N2CCC(c3ccc(-c4cnn(C)c4)cc3)CC2)cc1NC(=O)c1ccc(Cl)nc1 [Compound 275, 6-chloro-N-(2-(dimethylamino)-5-(4-(4-(1-methyl-1H-pyrazol-4-yl)phenyl)piperidine-1-carbonyl)phenyl)nicotinamide] | – | – | – | – | –
479 | > 10 | ~0.257 | CC(C)Nc1ccc(C(=O)Nc2cc(C(=O)N3CCC(c4ccc(-c5cnn(C)c5)cc4)CC3)ccc2N(C)C(C)C)cn1 [Compound 276, N-(2-(isopropyl(methyl)amino)-5-(4-(4-(1-methyl-1H-pyrazol-4-yl)phenyl)piperidine-1-carbonyl)phenyl)-6-(isopropylamino)nicotinamide] | – | – | – | – | –
148 | 6.17 | 0.0776 | CC(C)Nc1ccc(C(=O)Nc2cc(C(=O)N3CCC(c4ccc(-c5cnn(C)c5)cc4)CC3)ccc2N(C)C)cn1 [Compound 280, N-(2-(dimethylamino)-5-(4-(4-(1-methyl-1H-pyrazol-4-yl)phenyl)piperidine-1-carbonyl)phenyl)-6-(isopropylamino)nicotinamide] | – | – | – | – | –
933 | ~6.31 | 0.417 | COCCN(C)c1ccc(C(=O)N2CCC(c3ccc(-c4cnn(C)c4)cc3)CC2)cc1NC(=O)c1ccc(NC(C)C)nc1 [Compound 281, 6-(isopropylamino)-N-(2((2-methoxyethyl)(methyl)amino)-5-(4-(4-(1-methyl-1H-pyrazol-4-yl)phenyl)piperidine-1-carbonyl)phenyl)nicotinamide] | – | – | – | – | –
407 | > 10 | ~0.316 | CC(C)Nc1ccc(C(=O)Nc2cc(C(=O)N3CCC(c4ccc(-c5cnn(C)c5)cc4)CC3)ccc2NC(C)C)cn1 [Compound 284, 6-(isopropylamino)-N-(2-(isopropylamino)-5-(4-(4-(1-methyl-1H-pyrazol-4-yl)phenyl)piperidine-1-carbonyl)phenyl)nicotinamide] | – | – | – | – | –
214 | 3.39 | 0.0589 | CC(C)Nc1ccc(C(=O)Nc2cc(C(=O)N3CCC(c4ccc(-c5cnn(C)c5)cc4)CC3)ccc2N)cn1 [Compound 285, N-(2-amino-5-(4-(4-(1-methyl-1H-pyrazol-4-yl)phenyl)piperidine-1-carbonyl)phenyl)-6-(isopropylamino)nicotinamide] | – | – | – | – | –
31.6 | > 15.1 | ~0.0229 | Cc1ccc(C(=O)N2CC(c3ccc(-c4cnn(C)c4)cc3)C2)cc1NC(=O)c1ccc(N2CCOCC2)nc1 [Compound #66, N-(2-methyl-5-(3-(4-(1-methyl-1H-pyrazol-4-yl)phenyl)azetidine-1-carbonyl)phenyl)-6-morpholinonicotinamide] | – | – | – | – | –
25.1 | ~15.1 | ~0.0295 | Cc1ccc(C(=O)N2CC(c3ccc(-c4cnn(C)c4)cc3)C2)cc1NC(=O)c1ccc(N(C)C(C)C)nc1 [Compound #78, 6-(isopropyl(methyl)amino)-N-(2-methyl-5-(3-(4-(1-methyl-1H-pyrazol-4-yl)phenyl)azetidine-1-carbonyl)phenyl)nicotinamide] | – | – | – | – | –
93.3 | ~10 | 0.0417 | CNc1ccc(C(=O)N2CCC(c3ccc(-c4cnn(C)c4)cc3)CC2)cc1NC(=O)c1ccc(NC(C)C)nc1 [Compound #279, 6-(isopropylamino)-N-(5-(4-(4-(1-methyl-1H-pyrazol-4-yl)phenyl)piperidine-1-carbonyl)-2-(methylamino)phenyl)nicotinamide] | – | – | – | – | –

From US9562035B2, “Benzamide derivative useful as FASN inhibitors for the treatment of cancer” (Janssen Pharmaceutica NV, priority 2013, dated 2017)
